Where two headings read alike, the source gives them in different places.
Legend:
[1] = target: T1, human lysosomal acid β-galactosidase (GH35) (Homo sapiens, UniProt P16278); assay: IC50, modified β-Gal assay in normal fibroblast homogenate; type: biochemical; details: for IC50: normal fibroblasts, 4-methylumbelliferyl-β-D-galactopyranoside, pH 4.0, read-out: β-Gal human lys. (GH35)
T1 construct: endogenous in cells; host or cells: normal human skin fibroblasts (homogenate)
T1 sequence (P16278 29-677): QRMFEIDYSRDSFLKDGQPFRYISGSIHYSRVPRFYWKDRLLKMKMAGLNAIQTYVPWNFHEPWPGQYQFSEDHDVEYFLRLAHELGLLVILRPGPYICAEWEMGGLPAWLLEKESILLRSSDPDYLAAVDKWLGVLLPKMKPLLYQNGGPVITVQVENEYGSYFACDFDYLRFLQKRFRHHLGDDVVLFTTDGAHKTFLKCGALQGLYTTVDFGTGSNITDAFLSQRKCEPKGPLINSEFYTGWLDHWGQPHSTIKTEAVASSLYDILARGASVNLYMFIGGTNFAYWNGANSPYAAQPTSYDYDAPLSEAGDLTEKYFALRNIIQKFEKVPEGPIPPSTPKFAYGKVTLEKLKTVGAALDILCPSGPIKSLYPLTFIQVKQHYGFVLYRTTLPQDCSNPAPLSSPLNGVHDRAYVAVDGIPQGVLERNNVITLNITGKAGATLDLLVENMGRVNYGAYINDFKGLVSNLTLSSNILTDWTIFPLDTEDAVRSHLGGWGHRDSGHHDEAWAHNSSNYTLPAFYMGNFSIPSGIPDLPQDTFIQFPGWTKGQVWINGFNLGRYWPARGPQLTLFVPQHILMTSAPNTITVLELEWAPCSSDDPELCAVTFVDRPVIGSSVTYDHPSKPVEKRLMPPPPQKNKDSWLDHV
Procedure: Human β-galactosidase and β-hexosaminidase activity measurements were performed in duplicate assays, unless otherwise stated. Fibroblast cells were harvested by trypsinization in 0.9% NaCl containing 0.01% Triton, homogenized by sonication (3 × 10 s, Sonifier Bandelin Sonopuls, Bandelin, Berlin, Germany) and centrifuged at 13,000 rpm for 2 min in a table top centrifuge (Biofuge Pico, Heraeus, Hanau, Germany). Protein amounts were determined according to the method of Lowry.
For assessment of β-Gal activity, 20 µL of cell homogenate were mixed with 100 µL of 0.5 mM 4-methylumbelliferyl-β-D-galactopyranoside (Sigma-Aldrich, St. Louis, MO, USA), in 100 mM citrate buffer (pH 4.0) containing 100 mM NaCl and 0.02% NaN3. After incubation at 37 °C for 30 min, the reaction was stopped by adding 2.5 mL 400 mM glycine/NaOH (pH 10.4).
Modified β-Gal assays were used to estimate the half maximal inhibitory concentration (IC50) of the particular chaperone. For IC50 determination, 0.001 to 100 µM of chaperone was added to the assay mixture. Activity was measured in normal fibroblasts. Data analysis was performed with Microcal™ Origin® v6.0 (Origin Lab, Northampton, MA, USA) using a non-linear curve fitting module based on sigmoid curve fitting.
Potential chaperones were dissolved in DMSO and diluted in 10 mM phosphate buffer (pH 7.0) containing 100 mM NaCl, 0.01% NaN3, and 0.01% Triton for the IC50-measurements and in MEM for the in-vivo tests. The total DMSO concentration in the media was less than 1% and had no effect on β-Gal activity or cell viability.

[2] = target: T2, β-galactosidase from bovine liver (GH35) (Bos taurus, UniProt Q58D55); details: read-out: Ki Bovine liver (β-Gal) (GH35); cited from earlier work
T2 construct: Bovine liver β-galactosidase; from tissue; host or cells: bovine liver
T2 sequence (Q58D55 28-653): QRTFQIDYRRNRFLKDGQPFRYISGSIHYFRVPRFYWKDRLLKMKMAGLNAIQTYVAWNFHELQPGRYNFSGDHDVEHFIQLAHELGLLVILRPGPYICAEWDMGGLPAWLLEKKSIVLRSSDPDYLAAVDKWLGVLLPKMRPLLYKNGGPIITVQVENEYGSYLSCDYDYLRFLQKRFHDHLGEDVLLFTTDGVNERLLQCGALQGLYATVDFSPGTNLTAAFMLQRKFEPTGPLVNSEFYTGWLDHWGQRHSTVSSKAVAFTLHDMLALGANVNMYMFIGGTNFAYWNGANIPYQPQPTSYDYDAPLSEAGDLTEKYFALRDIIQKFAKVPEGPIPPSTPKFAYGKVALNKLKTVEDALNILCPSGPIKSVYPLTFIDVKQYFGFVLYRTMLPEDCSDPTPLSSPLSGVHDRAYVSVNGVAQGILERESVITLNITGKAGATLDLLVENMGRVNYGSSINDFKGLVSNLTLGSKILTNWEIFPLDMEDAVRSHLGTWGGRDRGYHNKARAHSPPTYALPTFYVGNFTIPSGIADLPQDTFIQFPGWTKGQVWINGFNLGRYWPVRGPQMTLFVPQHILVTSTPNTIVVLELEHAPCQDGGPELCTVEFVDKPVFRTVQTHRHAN

[3] = target: T1, human lysosomal acid β-galactosidase (GH35); details: read-out: β-Gal human lys. (GH35); cited from earlier work
[4] = target: lac Z β-galactosidase from E. coli (GH2) (Escherichia coli, UniProt P00722); details: read-out: Ki E. coli (β-Gal) (GH2); cited from earlier work
Chain of lac Z β-galactosidase from E. coli (GH2) (P00722 2-1024): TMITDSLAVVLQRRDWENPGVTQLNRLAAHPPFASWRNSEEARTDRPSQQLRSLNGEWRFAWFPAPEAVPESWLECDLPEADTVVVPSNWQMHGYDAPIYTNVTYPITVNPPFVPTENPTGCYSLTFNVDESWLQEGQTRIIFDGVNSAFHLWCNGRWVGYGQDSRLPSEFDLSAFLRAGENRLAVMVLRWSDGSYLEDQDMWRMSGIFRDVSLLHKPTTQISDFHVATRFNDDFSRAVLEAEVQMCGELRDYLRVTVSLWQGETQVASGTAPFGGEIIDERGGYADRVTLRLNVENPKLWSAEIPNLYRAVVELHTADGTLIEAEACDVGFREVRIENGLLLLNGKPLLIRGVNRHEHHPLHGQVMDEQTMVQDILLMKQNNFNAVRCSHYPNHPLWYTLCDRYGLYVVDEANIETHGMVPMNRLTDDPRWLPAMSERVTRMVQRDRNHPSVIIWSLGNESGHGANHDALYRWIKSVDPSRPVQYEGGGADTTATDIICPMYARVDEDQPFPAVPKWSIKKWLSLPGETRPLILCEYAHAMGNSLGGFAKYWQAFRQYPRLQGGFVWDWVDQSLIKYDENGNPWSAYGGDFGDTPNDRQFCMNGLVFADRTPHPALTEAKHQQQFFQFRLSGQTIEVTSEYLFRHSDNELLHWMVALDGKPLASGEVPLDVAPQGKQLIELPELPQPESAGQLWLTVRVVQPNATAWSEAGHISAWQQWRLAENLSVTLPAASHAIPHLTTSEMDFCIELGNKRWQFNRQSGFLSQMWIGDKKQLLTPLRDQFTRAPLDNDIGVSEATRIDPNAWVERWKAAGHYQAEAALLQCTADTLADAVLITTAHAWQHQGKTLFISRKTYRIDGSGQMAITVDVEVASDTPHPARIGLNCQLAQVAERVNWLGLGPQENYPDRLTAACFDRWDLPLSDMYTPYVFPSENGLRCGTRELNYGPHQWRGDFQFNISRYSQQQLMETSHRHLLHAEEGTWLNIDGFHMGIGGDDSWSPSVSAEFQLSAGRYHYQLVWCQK

[5] = target: T3, β-glucosidase/β-galactosidase from Agrobacterium sp. (Abg, GH1) (Agrobacterium sp., UniProt P12614); details: read-out: Ki Abg (β-Glc/Gal) (GH1); cited from earlier work
T3 sequence (P12614 1-459): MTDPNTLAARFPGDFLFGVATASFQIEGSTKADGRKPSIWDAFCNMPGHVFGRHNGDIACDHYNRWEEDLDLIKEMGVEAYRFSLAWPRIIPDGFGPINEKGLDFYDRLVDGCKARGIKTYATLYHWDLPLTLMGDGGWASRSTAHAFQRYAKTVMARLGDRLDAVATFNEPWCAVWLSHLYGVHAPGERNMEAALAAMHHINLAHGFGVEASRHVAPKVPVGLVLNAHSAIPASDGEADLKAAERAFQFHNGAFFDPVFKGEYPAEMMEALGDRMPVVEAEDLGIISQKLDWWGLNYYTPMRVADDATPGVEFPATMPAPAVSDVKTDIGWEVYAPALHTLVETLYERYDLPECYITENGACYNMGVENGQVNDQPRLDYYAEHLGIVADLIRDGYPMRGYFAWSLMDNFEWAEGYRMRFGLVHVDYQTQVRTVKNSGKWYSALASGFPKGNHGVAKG

[6] = target: α-glucosidase from S. cerevisiae (GH13); details: read-out: Ki S. cer. (α-Glc) (GH13); cited from earlier work

For `CCCCCCCCNC1C=C(CO)C(O)C(O)C1O` (stereo not drawn) [Compound 1, N-octyl-epi-valienamine], the IC50 [1] is listed as 0.51 µM and the Ki [2] is listed as 0.87 µM.

In the case of `CN(C)c1cccc2c(S(=O)(=O)NCCCCCC[C@@H]3NC[C@@H](O)[C@@H](O)[C@H]3CO)cccc12` [Compound 14], the IC50 [3] is listed as 0.38 µM, the Ki [4] is listed as 0.0021 µM and the Ki [2] is listed as 0.0014 µM. The Ki [5] was 0.0175 µM and the Ki [6] was greater than 1000 µM.

With `CCCCCCCCN[C@H]1[C@H](O)[C@@H](O)[C@@H](O)[C@H]1CO` [Compound 16] the IC50 [1] was 0.42 µM.

For `CN(C)c1cccc2c(S(=O)(=O)NCCCCCCN[C@H]3[C@H](O)[C@@H](O)[C@@H](O)[C@H]3CO)cccc12` [Compound 17], the IC50 [3] is listed as 0.4 µM, the Ki [4] is listed as 0.0101 µM and the Ki [5] is listed as 0.0012 µM. The Ki [6] was greater than 1000 µM.

`CN(C)c1cccc2c(S(=O)(=O)NCCCCCC[C@H]3NC[C@@H](O)[C@@H](O)[C@H]3CO)cccc12` [Compound 22] showed an IC50 [1] of 0.094 µM.

In the case of `CN(C)c1cccc2c(S(=O)(=O)NCCCCCCN[C@H]3C[C@@H](O)[C@@H](O)[C@H]3CO)cccc12` [Compound 31, (1R,2S,3R,4S)-3-Hydroxymethyl-4-(6′-dansylaminohexylamino)cyclopentane-1,2-diol], the IC50 [1] is reported as 82.5 µM.

For `CN(C)c1cccc2c(S(=O)(=O)NCCCCCCN[C@H]3[C@H](F)[C@@H](O)[C@@H](O)[C@H]3CO)cccc12` [Compound 37, (1S,2S,3S,4R,5R)-4-(6′-Dansylaminohexyl)amino-3-fluoro-5-hydroxymethylcyclopentane-1,2-diol], the “fold weaker binding than 17, human lysosomal β-galactosidase” value ([1]; compared with hydroxylated inhibitor 17) was “approx. 90 fold” and the IC50 [1] was 34.9 µM.
